Measurements published in ChEMBL document CHEMBL5728688, “Substituted pyridines as TYK2 inhibitors” (2021).
pKd: −log10 of the molar value.

Target: Non-receptor tyrosine-protein kinase TYK2 (Homo sapiens, UniProt P29597)
Assay: TYK2 JH2 Domain Binding Assay: DiscoverX's KINOMEscan™ is a popular platform for kinase profiling, frequently used in academic and industry witnessed by publications, therefore we selected this platform as a primary cell-free screening assay to determine the relative binding potency and guide chemistry SAR.Developed by DiscoverX, KINOMEscan™ employs proprietary active-site dependent competition binding assays to determine how compounds bind to kinases. KINOMEscan™ is based on a competition binding assay that quantitatively measures the ability of a compound to compete with an immobilized, active site directed ligand. The assay is performed by combining three components: DNA-tagged kinase; immobilized ligand; and a test compound. […] The liganded beads were blocked with excess biotin and washed with blocking buffer (SeaBlock (Pierce), 1% BSA, 0.05% Tween 20, 1 mM DTT) to remove unbound ligand and to reduce non-specific binding. […] Test compounds were prepared as 111× stocks in 100% DMSO. All test compounds were shipped to DiscoverX in DMSO with concentration of 10 mM. […] Each compound was tested in duplicate. […] The compounds were then diluted directly into the assays such that the final concentration of DMSO was 0.9%. All reactions performed in polypropylene 384-well plate. Each was a final volume of 0.02 ml. […] […]

Sequence of Non-receptor tyrosine-protein kinase TYK2 (P29597 whole entry, the tested form may be a part): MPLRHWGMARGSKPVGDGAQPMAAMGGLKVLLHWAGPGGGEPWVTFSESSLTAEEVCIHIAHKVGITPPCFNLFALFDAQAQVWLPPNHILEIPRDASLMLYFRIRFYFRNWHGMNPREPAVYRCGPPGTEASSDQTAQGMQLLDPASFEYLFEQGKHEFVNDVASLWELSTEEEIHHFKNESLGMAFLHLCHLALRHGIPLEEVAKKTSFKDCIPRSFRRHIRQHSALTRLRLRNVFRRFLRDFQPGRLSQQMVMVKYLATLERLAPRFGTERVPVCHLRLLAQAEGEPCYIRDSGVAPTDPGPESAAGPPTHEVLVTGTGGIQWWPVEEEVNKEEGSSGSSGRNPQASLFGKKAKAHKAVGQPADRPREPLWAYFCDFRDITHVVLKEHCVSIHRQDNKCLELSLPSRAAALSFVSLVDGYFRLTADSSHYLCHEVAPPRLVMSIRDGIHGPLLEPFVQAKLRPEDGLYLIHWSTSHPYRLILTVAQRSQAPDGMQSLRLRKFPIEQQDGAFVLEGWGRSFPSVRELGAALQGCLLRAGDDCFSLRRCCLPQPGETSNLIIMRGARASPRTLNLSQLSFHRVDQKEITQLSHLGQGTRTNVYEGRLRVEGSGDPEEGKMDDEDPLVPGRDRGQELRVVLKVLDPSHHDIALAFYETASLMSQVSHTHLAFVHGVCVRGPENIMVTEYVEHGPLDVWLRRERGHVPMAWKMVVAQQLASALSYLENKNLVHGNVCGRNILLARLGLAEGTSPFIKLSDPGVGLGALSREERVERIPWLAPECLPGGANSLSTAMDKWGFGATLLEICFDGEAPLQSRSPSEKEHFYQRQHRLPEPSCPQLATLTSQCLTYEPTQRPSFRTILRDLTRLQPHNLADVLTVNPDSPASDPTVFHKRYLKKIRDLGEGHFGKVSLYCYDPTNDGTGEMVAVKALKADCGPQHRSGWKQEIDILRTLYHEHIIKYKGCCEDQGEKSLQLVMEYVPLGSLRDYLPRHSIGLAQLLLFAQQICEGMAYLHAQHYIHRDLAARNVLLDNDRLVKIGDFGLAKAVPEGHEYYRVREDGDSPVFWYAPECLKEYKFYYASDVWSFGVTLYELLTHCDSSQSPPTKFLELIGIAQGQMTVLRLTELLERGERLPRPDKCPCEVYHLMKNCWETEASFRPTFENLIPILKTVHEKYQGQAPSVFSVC

pKd: > 9.00
SMILES: CNC(=O)c1nnc(N2CCC(C)(C)C2=O)cc1Nc1cccc(-c2ncn(C)n2)c1OC
